In publication PMC6965684, “Characterization of binding, functional activity, and contractile responses of the selective 5‐HT1F receptor agonist lasmiditan” (British Journal of Pharmacology, 2019):
pEC50: −log10 of the molar value. Where a name gives a salt, the structure may show the parent alone.

Tests used:
5-HT1F receptor [1] = target: T1, 5-HT1F receptor (Homo sapiens, UniProt P30939); assay: cell-based; design: species or system CHO-K1; cAMP HTRF agonist assay, Gi coupled receptors, inhibition of stimulated cAMP; details: cAMP
T1 construct: gene HTR1F; full-length human recombinant receptor in CHO-K1 cells (Ogeda)
T1 sequence (P30939 1-366): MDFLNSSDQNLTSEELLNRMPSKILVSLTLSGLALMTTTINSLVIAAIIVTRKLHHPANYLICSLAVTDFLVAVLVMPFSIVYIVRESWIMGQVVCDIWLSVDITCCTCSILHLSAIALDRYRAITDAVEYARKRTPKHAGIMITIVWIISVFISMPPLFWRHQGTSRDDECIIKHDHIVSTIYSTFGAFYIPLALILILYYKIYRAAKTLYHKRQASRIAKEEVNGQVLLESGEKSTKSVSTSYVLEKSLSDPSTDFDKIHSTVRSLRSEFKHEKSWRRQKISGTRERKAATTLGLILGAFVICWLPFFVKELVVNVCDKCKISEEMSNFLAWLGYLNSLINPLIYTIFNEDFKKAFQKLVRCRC
Description: Concentration–response curves were performed in parallel with the agonists. For agonist tests, 12 μl of cells were mixed with 6 μl of the test compound (at increasing concentrations) and 6 μl of https://www.guidetopharmacology.org/GRAC/LigandDisplayForward?ligandId=5190 and then incubated for 30 min at room temperature. After addition of the lysis buffer and 1‐hr incubation, cAMP concentrations were estimated according to the manufacturer specification with the HTRF kit (Cisbio International, Codelet, France). In brief, increasing concentrations of agonists were added to stably transfected cells in buffer in an Optiplate (PerkinElmer Life Sciences, Massachusetts, USA). The plates were incubated, and cells were then lysed by the addition of HTRF reagents (cAMP‐Cryptate and anti‐cAMP‐d2 reagents) and diluted in lysis buffer, followed by incubation at room temperature. As 5‐HT1B receptors have been reported in naïve CHO‐K1 cells (George, Bungay, & Naylor, 1997), we also tested https://www.guidetopharmacology.org/GRAC/LigandDisplayForward?ligandId=4 (5‐CT, the reference agonist for the 5‐HT1B receptor), in CHO‐K1 cells transfected with a non‐5‐HT, GPCR. […] For the new assays developed in this study (i.e., 5‐ht1E receptor), the two independent pIC50 determined must be concordant with a 1 log unit interval for the assays to be validated. […]

5-HT1F receptor [2] = target: T1, 5-HT1F receptor; assay: radioligand competition, CHO-K1 membranes; format: binding; details: radioligand listed in supplement Table S1; unreliable (pIC50 printed as <[…])
Excerpt: radioligand competition, CHO-K1 membranes on 5-HT1F receptor

Structure (SMILES) | pEC50 (5-HT1F receptor [1]) | 5-HT1F / pKi (5-HT1F receptor [2])
CNC1CCc2[nH]c3ccc(C(N)=O)cc3c2C1 (racemic) [Frovatriptan racemate] | 7.10 | 
N#Cc1ccc(N2CCN(C(=O)COc3ccc4[nH]cc(CCN)c4c3)CC2)cc1 [Donitriptan hydrochloride] |  | 5.18 -log M
CN(C)[C@@H]1CCc2[nH]c3ccc(NC(=O)c4ccc(F)cc4)cc3c2C1 [LY344864 hydrochloride] | 8.72 | 
